What was measured:
Experiment in all cases: MTS assay, inhibition of cell growth
Assay type in all cases: cell-based
DLD-1 cells = conditions: Homo sapiens, compound at 10 μM, 72 hours
Description: (§1) MDA-MB-231, DLD-1, Kato III NCI-H1299, PACA-2 cells, were maintained at 37° C., 5% CO2 in DMEM media supplemented with 10% fetal bovine serum, penicillin/streptomycin and fungizone (Invitrogen). Cells were seeded into 96-well tissue culture plates at 3000 per well and cultured at 37° C. for 18 hours. Test compounds were dissolved and diluted to 300× in DMSO then further diluted 1:40 in DMEM before addition to cells (1:7.5 dilution). Cells were incubated with test compounds for 72 hours followed by incubation with tetrazolium compound (3-(4,5-dimethylthiazol-2-yl)-5-(3-carboxymethoxyphenyl)-2-(4-sulfophenyl)-2H-tetrazolium, inner salt; MTS) and the electron coupling reagent, phenazine methosulfate (PMS) for 4 hours. […] The ability of compounds to inhibit cell growth in this assay is correlated with the reduction of dehydrogenase enzyme activity found in metabolically active cells. The measurement of the absorbance of the formazan was assessed using an ENVISION™ (Perkin Elmer) microplate reader at 492 nm.

Kato III cells = conditions: Homo sapiens, compound at 10 μM, 72 hours
Description: as §1

MDA-MB-231 cells = conditions: Homo sapiens, compound at 10 μM, 72 hours
Description: as §1

NCI-H1299 cells = conditions: Homo sapiens, compound at 10 μM, 72 hours
Description: as §1

PACA-2 cells = conditions: compound at 10 μM, 72 hours
Description: as §1

Compound | inhibition at 10 µM (DLD-1 cells) | inhibition at 10 µM (Kato III cells) | inhibition at 10 µM (MDA-MB-231 cells) | inhibition at 10 µM (NCI-H1299 cells) | inhibition at 10 µM (PACA-2 cells)
O=C(Nc1cccc(Oc2ccccc2)c1)N1CCc2c(cnc3[nH]nc(Br)c23)C1 [1-bromo-N-(3-phenoxyphenyl)-3,6,8,9-tetrahydro-7H-pyrazolo[3,4-c][2,7]naphthyridine-7-carboxamide] | 75 to 100% | 75 to 100% | 25 to 49% | 50 to 74% | 50 to 74%
Cc1ccc(C)c(S(=O)(=O)NC2CCc3c(cnc4[nH]ncc34)C2)c1 (centres unmarked) [2,5-dimethyl-N-(6,7,8,9-tetrahydro-3H-pyrazolo[3,4-c]isoquinolin-7-yl)benzenesulfonamide] | 75 to 100% | 75 to 100% | 75 to 100% | 75 to 100% | 75 to 100%
COc1ccc(Cn2ncc3c4c(cnc32)CCc2[nH]c(=O)ccc2-4)cc1 [3-(4-methoxybenzyl)-3,6,7,8-tetrahydro-9H-pyrazolo[4,3-a][3,7]phenanthrolin-9-one] | 75 to 100% | 75 to 100% | 75 to 100% | 75 to 100% | 75 to 100%
CNc1ncc2c(n1)CCc1cnc3c(cnn3Cc3ccc(OC)cc3)c1-2 [3-(4-methoxybenzyl)-N-methyl-6,7-dihydro-3H-pyrazolo[4′,3′:5,6]pyrido[4,3-f]quinazolin-9-amine] | 75 to 100% | 75 to 100% | 75 to 100% | < 24% | 75 to 100%
Nc1nc(N2CCc3c(cnc4[nH]ncc34)C2)c2cn[nH]c2n1 [4-(3,6,8,9-tetrahydro-7H-pyrazolo[3,4-c][2,7]naphthyridin-7-yl)-1H-pyrazolo[3,4-d]pyrimidin-6-amine] | 75 to 100% | 75 to 100% | 50 to 74% | 25 to 49% | 75 to 100%
c1nc2[nH]ncc2c2c1CNCC2 [6,7,8,9-tetrahydro-3H-pyrazolo[3,4-c][2,7]naphthyridine] | 75 to 100% | 25 to 49% | 75 to 100% | 25 to 49% | 75 to 100%
c1cc2c(s1)CCc1cnc3[nH]ncc3c1-2 [6,7-dihydro-3H-pyrazolo[3,4-c]thieno[3,2-f]isoquinoline] | 75 to 100% | 75 to 100% | 75 to 100% | 75 to 100% | 75 to 100%
Nc1nc(N)nc(N2CCc3c(cnc4[nH]ncc34)C2)n1 [6-(3,6,8,9-tetrahydro-7H-pyrazolo[3,4-c][2,7]naphthyridin-7-yl)-1,3,5-triazine-2,4-diamine] | 75 to 100% | 75 to 100% | 75 to 100% | 75 to 100% | 75 to 100%
Nc1nc(N2CCc3c(cnc4[nH]ncc34)C2)c2nc[nH]c2n1 [6-(3,6,8,9-tetrahydro-7H-pyrazolo[3,4-c][2,7]naphthyridin-7-yl)-9H-purin-2-amine] | 75 to 100% | 75 to 100% | 75 to 100% | 75 to 100% | 75 to 100%
Cc1cc(NC2CCc3c(cnc4[nH]ncc34)C2)nc(N)n1 (centres unmarked) [6-methyl-N~4~-(6,7,8,9-tetrahydro-3H-pyrazolo[3,4-c]isoquinolin-7-yl)pyrimidine-2,4-diamine] | 75 to 100% | 75 to 100% | 75 to 100% | 25 to 49% | 75 to 100%
Clc1ccccc1C1Cc2cnc3[nH]nc(-c4cnn(C5CCNCC5)c4)c3c2-c2ccccc21 (centres unmarked) [7-(2-chlorophenyl)-1-(1-piperidin-4-yl-1H-pyrazol-4-yl)-6,7-dihydro-3H-benzo[f]pyrazolo[3,4-c]isoquinoline] | 75 to 100% | 75 to 100% | 75 to 100% | 75 to 100% | 75 to 100%
O=S(=O)(c1cccs1)N1CCc2c(cnc3[nH]ncc23)C1 [7-(2-thienylsulfonyl)-6,7,8,9-tetrahydro-3H-pyrazolo[3,4-c][2,7]naphthyridine] | 75 to 100% | 75 to 100% | 75 to 100% | 75 to 100% | 75 to 100%
CS(=O)(=O)N1CCc2c(cnc3[nH]ncc23)C1 [7-(methylsulfonyl)-6,7,8,9-tetrahydro-3H-pyrazolo[3,4-c][2,7]naphthyridine] | 75 to 100% | 75 to 100% | 75 to 100% | 75 to 100% | 75 to 100%
COc1ccc(S(=O)(=O)N2CCc3c(cnc4[nH]ncc34)C2)cc1OC [7-[(3,4-dimethoxyphenyl)sulfonyl]-6,7,8,9-tetrahydro-3H-pyrazolo[3,4-c][2,7]napthyridine] | 75 to 100% | 75 to 100% | 75 to 100% | 75 to 100% | 75 to 100%
COc1ccc(CN2CCN(C(=O)N3CCc4c(cnc5[nH]ncc45)C3)CC2)cc1 [7-{[4-(4-methoxybenzyl)piperazin-1-yl]carbonyl}-6,7,8,9-tetrahydro-3H-pyrazolo[3,4-c][2,7]naphthyridine] | 75 to 100% | 75 to 100% | 75 to 100% | < 24% | 75 to 100%
Clc1ccccc1CN1CCN(c2ncc3c(n2)CCc2cnc4[nH]ncc4c2-3)CC1 [9-[4-(2-chlorobenzyl)piperazin-1-yl]-6,7-dihydro-3H-pyrazolo[4′3′:5,6]pyrido[4,3-f]quinazoline] | 75 to 100% | 75 to 100% | 75 to 100% | 75 to 100% | 75 to 100%
CN(C)CCNC(C(=O)N1CCc2c(cnc3[nH]nc(-c4ccccc4)c23)C1)c1ccccc1 (centres unmarked) [N,N-dimethyl-N′-[2-oxo-1-phenyl-2-(1-phenyl-3,6,8,9-tetrahydro-7H-pyrazolo[3,4-c][2,7]napthyridin-7-yl)ethyl]ethane-1,2-diamine] | 75 to 100% | 75 to 100% | 75 to 100% | 75 to 100% | 75 to 100%
O=C(NCCc1cccc(Cl)c1)c1cccc(NC(=O)N2CCc3c(cnc4[nH]ncc34)C2)c1 [N-(3-{[2-(3-chlorophenyl)ethyl]carbamoyl}phenyl)-3,6,8,9-tetrahydro-7H-pyrazolo[3,4-c][2,7]naphthyridine-7-carboxamide] | 75 to 100% | 75 to 100% | 75 to 100% | 25 to 49% | 75 to 100%
c1nc2[nH]ncc2c2c1CCc1nc(NCC3CCCCCC3)ncc1-2 [N-(cycloheptylmethyl)-6,7-dihydro-3H-pyrazolo[4′,3′:5,6]pyrido[4,3-f]quinazolin-9-amine] | 75 to 100% | 75 to 100% | 75 to 100% | 75 to 100% | 75 to 100%
O=C(NCC1CCCCC1)N1CCc2c(cnc3[nH]ncc23)C1 [N-(cyclohexylmethyl)-3,6,8,9-tetrahydro-7H-pyrazolo[3,4-c][2,7]naphthyridine-7-carboxamide] | 75 to 100% | 75 to 100% | 75 to 100% | 75 to 100% | 75 to 100%
FC(F)(F)c1cccc(CNc2ncc3c(n2)CCc2cnc4[nH]ncc4c2-3)c1 [N-[3-(trifluoromethyl)benzyl]-6,7-dihydro-3H-pyrazolo[4′,3′:5,6]pyrido[4,3-f]quinazolin-9-amine] | 75 to 100% | 75 to 100% | 75 to 100% | 75 to 100% | 75 to 100%
CN(C)c1ccc(NC(=O)N2CCc3c(cnc4[nH]ncc34)C2)cc1 [N-[4-(dimethylamino)phenyl]-3,6,8,9-tetrahydro-7H-pyrazolo[3,4-c][2,7]naphthyridine-7-carboxamide] | 75 to 100% | 75 to 100% | 75 to 100% | 75 to 100% | 75 to 100%
O=C(Nc1ccccc1)N1CCc2c(cnc3[nH]nc(-c4cccc(C(F)(F)F)c4)c23)C1 [N-phenyl-1-[3-(trifluoromethyl)phenyl]-3,6,8,9-tetrahydro-7H-pyrazolo[3,4-c][2,7]naphthyridine-7-carboxamide] | 75 to 100% | 75 to 100% | 75 to 100% | 75 to 100% | 75 to 100%
CC(C)(C)NC1CCc2c(cnc3[nH]ncc23)C1 (centres unmarked) [N-tert-butyl-6,7,8,9-tetrahydro-3H-pyrazolo[3,4-c]isoquinolin-7-amine] | 75 to 100% | 75 to 100% | 75 to 100% | 75 to 100% | 75 to 100%
O=C(NCCN1CCOCC1)c1cccc(NC(=O)N2CCc3c(cnc4[nH]ncc34)C2)c1 [N-{3-[(2-morpholin-4-ylethyl)carbamoyl]phenyl}-3,6,8,9-tetrahydro-7H-pyrazolo[3,4-c][2,7]napthyridine-7-carboxamide] | 75 to 100% | 75 to 100% | 75 to 100% | 75 to 100% | 75 to 100%
